Source: patent US10426169B2 (priority 2011, dated 2019)

Assays:
physchem = conditions: pH 2.7
Source text: The LC-MS determination in the acidic range is effected at pH 2.7 with 0.1% aqueous formic acid and acetonitrile (contains 0.1% formic acid) as eluents; linear gradient from 10% acetonitrile to 95% acetonitrile. • ^[b] The LC-MS determination in the neutral range is effected at pH 7.8 using 0.001 molar aqueous ammonium hydrogencarbonate solution and acetonitrile as eluents; linear gradient from 10% acetonitrile to 95% acetonitrile.
The calibration is effected with unbranched alkan-2-ones (having 3 to 16 carbon atoms) with known log P values (log P values determined on the basis of the retention times by linear interpolation between two successive alkanones).

Phytophthora infestans = assay type: in vivo, Phytophthora infestans on young tomato plants; conditions: protective, tomato plants, active ingredient concentration 100 ppm, evaluation 7 days after inoculation; 0% = control, 100% = no infection

| Compound | chromatographic logP (physchem) | Eff. % (Phytophthora infestans) [%] |
| --- | --- | --- |
| CS(=O)(=O)Oc1ccccc1C1CC(c2csc(C3CCN(C(=O)CO)CC3)n2)=NO1 (stereo not drawn) [XXVIIa-142, 2-{3-[2-(1-glycoloylpiperidin-4-yl)-1,3-thiazol-4-yl]-4,5-dihydro-1,2-oxazol-5-yl}phenyl methanesulphonate] | 1.88 |  |
| CC(C)=NOCC(=O)N1CCC(c2nc(-c3cc(-c4ccccc4C=O)on3)cs2)CC1 [I-8, 2-{3-[2-(1-{[(Propan-2-ylideneamino)oxy]acetyl}piperidin-4-yl)-1,3-thiazol-4-yl]-1,2-oxazol-5-yl}benzaldehyde] | 2.45 | 89 |
| CN(C)CC(=O)N1CCC(c2nc(C3=NOC(c4ccccc4OS(C)(=O)=O)C3)cs2)CC1 (stereo not drawn) [X-1, 2-(3-{2-[1-(N,N-Dimethylglycyl)piperidin-4-yl]-1,3-thiazol-4-yl}-4,5-dihydro-1,2-oxazol-5-yl)phenyl methanesulphonate] | 1.48 |  |
| CC(C)=NOCC(=O)N1CCC(c2nc(C3=NOC(c4ccccc4OS(C)(=O)=O)C3)cs2)CC1 (stereo not drawn) [I-12, 2-{3-[2-(1-{[(Propan-2-ylideneamino)oxy]acetyl}piperidin-4-yl)-1,3-thiazol-4-yl]-4,5-dihydro-1,2-oxazol-5-yl}phenyl methanesulphonate] | 2.36 |  |
| CS(=O)(=O)Oc1ccccc1C1CC(c2csc(C3CCN(C(=O)CCl)CC3)n2)=NO1 (stereo not drawn) [Xc-a-142, 2-(3-{2-[1-(Chloroacetyl)piperidin-4-yl]-1,3-thiazol-4-yl}-4,5-dihydro-1,2-oxazol-5-yl)phenyl methanesulphonate] | 2.42 |  |
| CC(C)(C)OC(=O)N1CCC(c2nc(C3=NOC(c4ccc(C(F)(F)F)cc4OS(C)(=O)=O)C3)cs2)CC1 (stereo not drawn) [XVI-143, tert-Butyl 4-[4-(5-{2-[(methylsulphonyl)oxy]-4-(trifluoromethyl)phenyl}-4,5-dihydro-1,2-oxazol-3-yl)-1,3-thiazol-2-yl]piperidine-1-carboxylate] | 4.36 |  |
| COC(C)(OC)C(CC(O)c1ccccc1OCC#C[Si](C)(C)C)=NO (stereo not drawn) [1-hydroxyl-4,4-dimethoxy-1-(2-{[3-(trimethylsilyl)prop-2-yn-1-yl]oxy}phenyl)pentan-3-one oxime] | 3.19 |  |
| CC(C)(C)[Si](C)(C)OCC(=O)N1CCC(c2nc(C3=NOC(c4ccccc4OS(C)(=O)=O)C3)cs2)CC1 (stereo not drawn) [X-2, 2-(3-{2-[1-({[tert-butyl(dimethyl)silyl]oxy}acetyl)piperidin-4-yl]-1,3-thiazol-4-yl}-4,5-dihydro-1,2-oxazol-5-yl)phenyl methanesulphonate] | 4.14 |  |
| C#CCOc1ccccc1C1CC(C(C)=O)=NO1 (stereo not drawn) [VIIIa-a-81, 1-[5-(2-{[prop-2-yn-1-yl]oxy}phenyl)-4,5-dihydro-1,2-oxazol-3-yl]ethanone] | 4.41 |  |
| CC(=O)OCC(=O)N1CCC(c2nc(C3=NOC(c4ccccc4OS(C)(=O)=O)C3)cs2)CC1 (stereo not drawn) [X-3, 2-{4-[4-(5-{2-[(Methylsulphonyl)oxy]phenyl}-4,5-dihydro-1,2-oxazol-3-yl)-1,3-thiazol-2-yl]piperidin-1-yl}-2-oxoethyl acetate] | 2.18 |  |
| CS(=O)(=O)Oc1cc(C(F)(F)F)ccc1C1CC(C(=O)CCl)=NO1 (stereo not drawn) [VIIa-a-143, 2-[3-(Chloroacetyl)-4,5-dihydro-1,2-oxazol-5-yl]-5-(trifluoromethyl)phenyl methanesulphonate] | 3.25 |  |
